One data set concerns the target T1, FAAH (Mus musculus, UniProt O08914).
T1 construct: A fragment of liver and brain without cerebellum were removed and put in plastic vials containing membrane buffer; from tissue; host or cells: brain (without cerebellum) and liver homogenates of male NMRI mice
T1 sequence (O08914 1-579): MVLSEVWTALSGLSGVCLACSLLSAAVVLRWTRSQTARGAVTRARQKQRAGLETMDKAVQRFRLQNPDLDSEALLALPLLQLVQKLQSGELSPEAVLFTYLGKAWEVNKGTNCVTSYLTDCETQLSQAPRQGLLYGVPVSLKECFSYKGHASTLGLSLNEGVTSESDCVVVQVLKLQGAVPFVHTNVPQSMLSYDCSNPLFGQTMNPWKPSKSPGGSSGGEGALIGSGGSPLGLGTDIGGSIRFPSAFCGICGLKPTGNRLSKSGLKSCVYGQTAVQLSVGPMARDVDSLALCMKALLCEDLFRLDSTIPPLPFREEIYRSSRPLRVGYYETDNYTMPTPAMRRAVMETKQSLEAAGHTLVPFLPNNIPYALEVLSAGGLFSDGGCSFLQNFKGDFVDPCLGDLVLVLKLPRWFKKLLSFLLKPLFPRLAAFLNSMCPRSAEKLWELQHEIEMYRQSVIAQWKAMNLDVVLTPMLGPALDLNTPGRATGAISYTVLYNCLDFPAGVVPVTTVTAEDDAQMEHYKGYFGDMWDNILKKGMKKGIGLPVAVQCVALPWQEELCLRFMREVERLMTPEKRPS
The data set is described as follows: FAAH activity in liver homogenate after oral dosing of mice. The class given is in vivo. Conditions: for Peripheral Selectivity: FAAH activity in the liver divided by FAAH activity in the brain (3 mg/kg, 8 h, po), lower = peripherally more selective; for activity at 1 mg/kg / activity at 0.3 mg/kg / activity at 3 mg/kg / activity at 0.1 mg/kg / activity at 0.01 mg/kg / activity at 0.03 mg/kg: mouse, po; for activity at 3 mg/kg: liver homogenate, remaining activity vs controls, read-out: FAAH Activity (%) Lv h. The method, then:
In vivo testing was performed according to the protocol described below. BRh (brain homogenate) indicates inhibition in central nervous tissue, in this case, brain, and LVh (liver homogenate) indicates inhibition in peripheral tissue, in this case, liver. The controls were the reaction mix minus the test compounds. Therefore, a low value for the test compound indicates a strong inhibitor.
The animals used for experiments were male NMRI mice (weighing 27-44 g) obtained from Interfauna Ibérica (Spain). Mice were kept 5 per cage, under controlled environmental conditions (12 hr light/dark cycle and room temperature 22±1° C.). Food and tap water were allowed ad libitum and the experiments were all carried out during daylight hours.
Animals were always fasted overnight before administration of compounds.
Animals were administered the appropriate dose of the compound of the invention via oral route (8 ml/kg; compound suspended in 0.5% carboxymethylcellulose (CMC) or solubilized in water) or vehicle (controls) using animal feeding stainless steel curve needles (Perfectum, U.S.A.). Fifteen minutes before sacrifice animal were anesthetized with pentobarbital 60 mg/kg administered intraperitoneally. A fragment of liver and brain without cerebellum were removed and put in plastic vials containing membrane buffer (3 mM MgCl2, 1 mM EDTA, 50 mM Tris HCl pH 7.4). Tissues were stored at −30° C. until analysis.
Anandamide [ethanolamine-1-^3H-] (40-60 Ci/mmol) was obtained from American Radiochemicals. All other reagents were obtained from Sigma-Aldrich. Optiphase Supermix was obtained from Perkin Elmer and activated charcoal was obtained from Sigma-Aldrich.
Tissues were thawed on ice and were homogenized in 10 volumes of membrane buffer (3 mM MgCl2, 1 mM EDTA, 50 mM Tris HCl pH 7.4) with either Potter-Elvejhem (brains—8 strokes at 500 rpm) or Heidolph Diax (livers—2 strokes at position 5 for 20 sec with 30 sec pauses).
Total protein in tissues was determined with the BioRad Protein Assay (BioRad) using a standard curve of BSA (50-250 μg/ml).
Reaction mix (total volume of 200 μl) contained: 2 μM AEA (2 μM AEA+5 nM ^3H-AEA), 0.1% fatty acid free BSA, 15 μg (brain) or 5 μg (liver) protein, in 1 mM EDTA, 10 mM Tris pH 7.6. After a 15 min pre-incubation period at 37° C., reaction was started by the addition of the substrate solution (cold AEA+radiolabelled AEA+BSA). Reaction was carried out for 10 min (brain) or 7 min (liver) before termination by the addition of 400 μl activated charcoal suspension (8 g charcoal in 32 ml 0.5 M HCl in continuous agitation). After a 30 min incubation period at room temperature with agitation, charcoal was sedimented by centrifugation in microfuge (10 min at 13000 rpm). 200 μl of the supernatant were added to 800 μl Optiphase Supermix scintillation cocktail previously distributed in 24-well plates. Counts per minute (cpm) were determined in a MicrobetaTriLux scintillation counter.
In each assay blanks (without protein) were prepared.
The percentage of remaining enzymatic activity was calculated with respect to controls and after blank subtraction.

Data set [1] can be described thus: CYPs metabolic stability assay in MLM. Conditions: 1 h, 50 μM compound; for Metabolic Stability (% of Remaining) Mouse CYP+: with NADPH; for Metabolic Stability (% of Remaining) Mouse CYP−: without NADPH (control value). The class given is in vitro ADME, mouse. The protocol:
Stability of the test compounds was performed in MLM (mouse liver microsomes) or HLM (human liver microsomes) in the presence and in the absence of NADPH.
The stability was measured using the incubation mixture (100 μl total volume) contained 1 mg/ml total protein, MgCl2 5 mM and 50 mM K-phosphate buffer. Samples were incubated in the presence and in the absence of NADPH 1 mM. Reactions were pre-incubated 5 min and the reaction initiated with the compound under test (5 μM for HLM and 50 μM for MLM). Samples were incubated for 60 min in a shaking water bath at 37° C. The reaction was stopped by adding 100 μl of acetonitrile. Samples were then centrifuged, filtered and supernatant injected in HLPC-MSD. Test compounds were dissolved in DMSO and the final concentration of DMSO in the reaction was below 0.5% (v/v). At T0 acetonitrile was added before adding the compound. All experiments were performed with samples in duplicate.
The stability data are given as % of remaining compound after 1 h exposure to MLM or HLM. 100% means no metabolic reaction at all and 0% corresponds to full enzymatic degradation. “CYP−” refers to the absence of cofactor (NADPH) which is essential for CYP metabolic reactions. Therefore “CYP−” can be regarded as control value. “CYP+” refers to the presence of cofactor and the enzymatic degradation may take place according to the stability of the test compound.

The term melting point denotes the temperature of the solid-liquid transition. Compound `CN(C(=O)n1cnc(-c2cccc(NS(N)(=O)=O)c2)c1)C1CCOCC1` [Compound 1, N-Methyl-4-(3-(sulfamoylamino)phenyl)-N-(tetrahydro-2H-pyran-4-yl)-1H-imidazole-1-carboxamide] showed a melting point of 128 °C. Further, the “Peripheral Selectivity” value on FAAH came out at 0.042. Also, the activity at 1 mg/kg at FAAH (1 h) is 8.5%. Moreover, at FAAH (8 h), the activity at 0.3 mg/kg stood at 36.1% and the activity at 3 mg/kg stood at 4.9%. Moreover, in data set [1], the “Metabolic Stability (% of Remaining) Mouse CYP+” value was determined as 93% and the “Metabolic Stability (% of Remaining) Mouse CYP−” value was 100%.

Regarding `CCC(=O)N1CCC(N(C)C(=O)n2cnc(-c3ccc(O)c(C)c3)c2)CC1` [Compound 2, 4-(4-Hydroxy-3-methylphenyl)-N-methyl-N-(1-propionylpiperidin-4-yl)-1H-imidazole-1-carboxamide], the melting point came out at 232 °C. Further, the “Peripheral Selectivity” value on FAAH is 0.018. At FAAH (1 h), this compound had an activity at 0.1 mg/kg of 21.9% and an activity at 1 mg/kg of 2.3%. Also, on FAAH (8 h), the activity at 0.01 mg/kg turned out to be 48.2%, the activity at 0.03 mg/kg stood at 42.9%, the activity at 0.1 mg/kg was determined as 6.7% and the activity at 0.3 mg/kg stood at 5.6%. Moreover, the activity at 3 mg/kg at FAAH (8 h) was 1.5%. Besides, in data set [1], the “Metabolic Stability (% of Remaining) Mouse CYP+” value came out at 86% and the “Metabolic Stability (% of Remaining) Mouse CYP−” value is reported as 83%.

Take `Cc1cc(-c2cn(C(=O)N(C)C3CCN(C(=O)C4CC4)CC3)cn2)ccc1O` [Compound 3, N-(1-(Cyclopropanecarbonyl)piperidin-4-yl)-4-(4-hydroxy-3-methylphenyl)-N-methyl-1H-imidazole-1-carboxamide]: the melting point was 204 °C. At FAAH, the “Peripheral Selectivity” value was found to be 0.020. For the same compound, the activity at 0.1 mg/kg on FAAH (1 h) is 37.9%. At FAAH (8 h), the activity at 0.01 mg/kg came out at 56.3%, the activity at 0.03 mg/kg was 53%, the activity at 0.1 mg/kg was found to be 10.7% and the activity at 0.3 mg/kg is 7.2%. On FAAH (8 h), the activity at 3 mg/kg is 1.8%. In data set [1], the “Metabolic Stability (% of Remaining) Mouse CYP+” value is given as 98% and the “Metabolic Stability (% of Remaining) Mouse CYP−” value worked out at 91%.

The record behind these values is patent US10501447B2, “Imidazolecarboxamides and their use as FAAH inhibitors” (BIAL-PORTELA & Ca, S.A., priority 2013, dated 2019).
